Data as given in PubChem BioAssay AID248 (DTP/NCI, 2004).
Values joined by “and” are separate entries in the source; they are usually repeats but may differ in a detail not shown here. Identical values can stand only once. Toxic doses and inconclusive results are not listed. No stated cut-off is given here; in the data, active means T/C of 150% or more; inactive means T/C below 125%.

Test system: L1210 leukemia ip in BDF1 mice, survival T/C
Experiment: NCI In Vivo Anticancer Drug Screen. Data for tumor model L1210 Leukemia (intraperitoneal) in B6D2F1 (BDF1) mice
Conditions: endpoint: mean survival time, higher = longer survival
In short: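 Ratio derived from survival: compound-dosed mice over vehicle-dosed mice, all bearing a transplantable tumor.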

[1] = dose: 100.0 mg/kg/injection, schedule: Q01DX009 (ip), vehicle: Klucel (hydroxypropylcellulose) (HPC)
[2] = dose: 100.0 mg/kg/injection, schedule: Q04DX003 (ip), vehicle: other
[3] = dose: 200.0 mg/kg/injection, schedule: Q01DX009 (ip), vehicle: Klucel (hydroxypropylcellulose) (HPC)
[4] = dose: 200.0 mg/kg/injection, schedule: Q04DX003 (ip), vehicle: other
[5] = dose: 400.0 mg/kg/injection, schedule: Q01DX009 (ip), vehicle: Klucel (hydroxypropylcellulose) (HPC)
[6] = dose: 400.0 mg/kg/injection, schedule: Q04DX003 (ip), vehicle: other
[7] = dose: 25.0 mg/kg/injection, schedule: Q01DX009 (ip), vehicle: saline with Tween-80
[8] = dose: 50.0 mg/kg/injection, schedule: Q01DX009 (ip), vehicle: saline with Tween-80
[9] = dose: 100.0 mg/kg/injection, schedule: Q04DX002 (ip), vehicle: Klucel (hydroxypropylcellulose) (HPC)
[10] = dose: 200.0 mg/kg/injection, schedule: Q04DX002 (ip), vehicle: Klucel (hydroxypropylcellulose) (HPC)
[11] = dose: 400.0 mg/kg/injection, schedule: Q04DX002 (ip), vehicle: Klucel (hydroxypropylcellulose) (HPC)
[12] = dose: 100.0 mg/kg/injection, schedule: Q04DX003 (ip), vehicle: saline with Tween-80
[13] = dose: 200.0 mg/kg/injection, schedule: Q04DX003 (ip), vehicle: saline with Tween-80
[14] = dose: 400.0 mg/kg/injection, schedule: Q04DX003 (ip), vehicle: saline with Tween-80
[15] = dose: 100.0 mg/kg/injection, schedule: Q01DX009 (ip), vehicle: saline
[16] = dose: 100.0 mg/kg/injection, schedule: Q01DX001 (ip), vehicle: saline with Tween-80
[17] = dose: 200.0 mg/kg/injection, schedule: Q01DX001 (ip), vehicle: saline with Tween-80
[18] = dose: 400.0 mg/kg/injection, schedule: Q01DX001 (ip), vehicle: saline with Tween-80
[19] = dose: 100.0 mg/kg/injection, schedule: Q01DX001 (ip), vehicle: Klucel (hydroxypropylcellulose) (HPC)
[20] = dose: 200.0 mg/kg/injection, schedule: Q01DX001 (ip), vehicle: Klucel (hydroxypropylcellulose) (HPC)
[21] = dose: 400.0 mg/kg/injection, schedule: Q01DX001 (ip), vehicle: Klucel (hydroxypropylcellulose) (HPC)

Measured: T/C

O=C(c1ccc(F)cc1)c1ccc2ccccc2c1
inactive: [1] 98 % of control | [2] 97 % of control | [3] 95 % of control | [4] 94 % of control | [5] 92 % of control | [6] 94 % of control

O=c1[nH]c2ccc(F)cc2c(=O)o1
inactive: dose: 75.0 mg/kg/injection, schedule: Q01DX009 (ip), vehicle: saline 107 % of control | dose: 150.0 mg/kg/injection, schedule: Q01DX009 (ip), vehicle: saline 93 % of control | dose: 300.0 mg/kg/injection, schedule: Q01DX009 (ip), vehicle: saline 94 % of control

CCCC[P+](CC(C)(C)c1ccc(C)cc1)(c1ccccc1)c1ccccc1
inactive: dose: 1.56 mg/kg/injection, schedule: Q04DX002 (ip), vehicle: saline 96 % of control | dose: 3.13 mg/kg/injection, schedule: Q04DX002 (ip), vehicle: saline 104 % of control | dose: 6.25 mg/kg/injection, schedule: Q04DX002 (ip), vehicle: saline 100 % of control | dose: 12.5 mg/kg/injection, schedule: Q04DX002 (ip), vehicle: saline 96 % of control | dose: 100.0 mg/kg/injection, schedule: Q04DX002 (ip), vehicle: saline with Tween-80 103 % of control

CC(=O)OCC(OC(C)=O)C(OC(C)=O)C(OC(C)=O)C(O)C#N (stereo not given)
inactive: dose: 12.5 mg/kg/injection, schedule: Q01DX009 (ip), vehicle: saline with Tween-80 93 % of control | [7] 93 % of control | [8] 97 % of control and 100 % of control

CCCCCCCCCCCC(c1ccccc1)[N+](C)(C)Cc1ccccc1 (stereo not given)
inactive: dose: 0.25 mg/kg/injection, schedule: Q01DX015 (ip), vehicle: saline 108 % of control | dose: 0.5 mg/kg/injection, schedule: Q01DX015 (ip), vehicle: saline 103 % of control | dose: 1.0 mg/kg/injection, schedule: Q01DX015 (ip), vehicle: saline 115 % of control | dose: 2.0 mg/kg/injection, schedule: Q01DX015 (ip), vehicle: saline 114 % of control | dose: 2.5 mg/kg/injection, schedule: Q01DX001 (ip), vehicle: carboxymethylcellulose (CMC) 93 % of control

N#CSCC1OCC(C(O)C(O)C2COC(CSC#N)O2)O1 (stereo not given)
inactive: [9] 95 % of control | [10] 98 % of control | [11] 95 % of control

CN1CCCN(C)CC1
inactive: [7] 104 % of control | [8] 97 % of control | dose: 100.0 mg/kg/injection, schedule: Q01DX009 (ip), vehicle: saline with Tween-80 103 % of control | [12] 95 % of control | dose: 200.0 mg/kg/injection, schedule: Q01DX009 (ip), vehicle: saline with Tween-80 91 % of control | [13] 100 % of control | [14] 102 % of control

C=CCOC(=O)Nc1cccc(OC(=O)NC(C)(C)C)c1
inactive: [12] 105 % of control | [13] 99 % of control | [14] 98 % of control

OCSCc1c(Cl)c(Cl)c(Cl)c(Cl)c1Cl
inactive: [9] 103 % of control | [10] 103 % of control | [11] 98 % of control

Clc1ccccc1OCCNC1CC1
inactive: dose: 6.25 mg/kg/injection, schedule: Q01DX009 (ip), vehicle: saline 101 % of control | dose: 12.5 mg/kg/injection, schedule: Q01DX009 (ip), vehicle: saline 105 % of control | dose: 25.0 mg/kg/injection, schedule: Q01DX009 (ip), vehicle: saline 97 % of control | dose: 25.0 mg/kg/injection, schedule: Q04DX003 (ip), vehicle: saline 102 % of control | dose: 50.0 mg/kg/injection, schedule: Q01DX009 (ip), vehicle: saline 103 % of control | dose: 50.0 mg/kg/injection, schedule: Q04DX003 (ip), vehicle: saline 100 % of control | [15] 105 % of control | dose: 100.0 mg/kg/injection, schedule: Q04DX003 (ip), vehicle: saline 102 % of control

O=C(OCCOCCOCCOC(=O)c1ccccc1)c1ccccc1
inactive: [1] 96 % of control | dose: 100.0 mg/kg/injection, schedule: Q04DX003 (ip), vehicle: Klucel (hydroxypropylcellulose) (HPC) 112 % of control | [3] 96 % of control | dose: 200.0 mg/kg/injection, schedule: Q04DX003 (ip), vehicle: Klucel (hydroxypropylcellulose) (HPC) 102 % of control | [5] 102 % of control | dose: 400.0 mg/kg/injection, schedule: Q04DX003 (ip), vehicle: Klucel (hydroxypropylcellulose) (HPC) 99 % of control

CN(C)CCN=Cc1[nH]c(=S)[nH]c(=O)c1CCc1ccccc1
inactive: [16] 93 % of control | [17] 97 % of control | [18] 95 % of control

Cc1c(-c2ccc(Cl)cc2)nc2cc(Cl)ccc2c1C(=O)O
inactive: dose: 100.0 mg/kg/injection, schedule: Q01DX005 (ip), vehicle: saline 107 % of control | [15] 100 % of control | dose: 200.0 mg/kg/injection, schedule: Q01DX005 (ip), vehicle: saline 93 % of control | dose: 200.0 mg/kg/injection, schedule: Q01DX009 (ip), vehicle: saline 103 % of control | dose: 400.0 mg/kg/injection, schedule: Q01DX005 (ip), vehicle: saline 91 % of control

O=C(Nc1nccs1)c1cccc(F)c1
inactive: [1] 104 % of control | [3] 110 % of control | [5] 112 % of control

O=[N+]([O-])c1cccc(OCCCCBr)c1
inactive: [2] 97 % of control | [4] 110 % of control | [6] 102 % of control

CC1CCS(=O)(=O)CC1.[Cl][Hg][Cl]
inactive: dose: 0.31 mg/kg/injection, schedule: Q01DX009 (ip), vehicle: saline 95 % of control | dose: 0.62 mg/kg/injection, schedule: Q01DX009 (ip), vehicle: saline 86 % of control | dose: 1.25 mg/kg/injection, schedule: Q01DX009 (ip), vehicle: saline 91 % of control

COc1ccc([N+](=O)[O-])cc1NC(C)=O
inactive: dose: 100.0 mg/kg/injection, schedule: Q01DX001 (ip), vehicle: carboxymethylcellulose (CMC) 99 % of control | dose: 200.0 mg/kg/injection, schedule: Q01DX001 (ip), vehicle: carboxymethylcellulose (CMC) 99 % of control | dose: 400.0 mg/kg/injection, schedule: Q01DX001 (ip), vehicle: carboxymethylcellulose (CMC) 99 % of control

O=c1[nH]c(C(F)(F)F)c(CCc2ccccc2)c(=O)[nH]1
inactive: [19] 103 % of control | [20] 110 % of control | [21] 107 % of control

O=C(O)c1cc(Cl)cc(I)c1Br
inactive: dose: 75.0 mg/kg/injection, schedule: Q04DX002 (ip), vehicle: Klucel (hydroxypropylcellulose) (HPC) 100 % of control | [9] 94 % of control | dose: 150.0 mg/kg/injection, schedule: Q04DX002 (ip), vehicle: Klucel (hydroxypropylcellulose) (HPC) 96 % of control | [10] 105 % of control | dose: 300.0 mg/kg/injection, schedule: Q04DX002 (ip), vehicle: Klucel (hydroxypropylcellulose) (HPC) 100 % of control | [11] 105 % of control

CC1NC(=O)OC12CCCCC2 (stereo not given)
inactive: [16] 96 % of control | [17] 92 % of control | [18] 92 % of control

COC(=O)N/N=C/c1ccc(C)cc1
inactive: [9] 108 % of control | [10] 115 % of control | [11] 94 % of control

CCOC(=O)/C=C(\C)c1ccc([N+](=O)[O-])cc1
inactive: [19] 107 % of control | [20] 100 % of control | [21] 97 % of control

CC1(C)N=C(N)N=C(N)N1c1ccc(CCNS(=O)(=O)c2ccc(S(=O)(=O)F)cc2)cc1
inactive: dose: 0.8 mg/kg/injection, schedule: Q01DX009 (ip), vehicle: saline 97 % of control | dose: 4.0 mg/kg/injection, schedule: Q01DX009 (ip), vehicle: saline 104 % of control | dose: 20.0 mg/kg/injection, schedule: Q01DX009 (ip), vehicle: saline 103 % of control | [15] 103 % of control | dose: 500.0 mg/kg/injection, schedule: Q01DX009 (ip), vehicle: saline 108 % of control
